Assays:
[1] = system: HepG2: Human liver cancer; test: Inhibitory test against cancer cell proliferation (1), MTS method; type: cell-based; conditions: 50% inhibitory concentration against proliferation, cultured for 3 days
Protocol: (§1) Cancer cells (Jurkat: Human T-cell leukemia, MIA PACA-2: Human pancreatic cancer, RD: Human rhabdomyoma, HepG2: Human liver cancer) were cultured for 3 days in the presence or absence of a test compound using RPMI1640 medium containing 10% bovine fetal serum or Dalbecco's Modified Eagle's Medium containing 10% FBS. The number of living cells was counted by MTS method, and amounts of cell proliferation were compared and inhibitory ratios were measured. In the table below, 50% inhibitory concentrations against the proliferation of each cancer cell are shown.

[2] = system: Jurkat: Human T-cell leukemia; test: as above; type: cell-based; conditions: 50% inhibitory concentration against proliferation, cultured for 3 days
Protocol: as §1

[3] = system: MIA PACA-2: Human pancreatic cancer; test: as above; type: cell-based; conditions: 50% inhibitory concentration against proliferation, cultured for 3 days
Protocol: as §1

RD: Human rhabdomyoma = test: as above; type: cell-based; conditions: 50% inhibitory concentration against proliferation, cultured for 3 days
Protocol: as §1

A549: human lung cancer = test: Inhibitory test against cancer cell proliferation (3); type: cell-based; conditions: Test Example 6, 50% inhibitory concentration against proliferation, similar operations to Test Example 1
Protocol: as §1
(§2) Similar operations to Test Example 1 were carried out using cancer cells (HepG2: human liver cancer, A^549: human lung cancer, MIA PACA-2: human pancreatic cancer). In the table below, 50% inhibitory concentrations against proliferation of each cancer cell are shown.

[4] = system: HepG2: Human liver cancer; test: as above; type: cell-based; conditions: Test Example 6, 50% inhibitory concentration against proliferation, similar operations to Test Example 1
Protocol: as §1, §2

[5] = system: MIA PACA-2: Human pancreatic cancer; test: as above; type: cell-based; conditions: Test Example 6, 50% inhibitory concentration against proliferation, similar operations to Test Example 1
Protocol: as §1, §2

B16 melanoma = test: Metastasis inhibitory test using mouse bearing B16 melanoma; type: in vivo, B6 mouse; design: key to Colony Formation (melanoma colonies in the lungs vs control): ±: Same as control; +: Inhibited; ++: Remarkably inhibited; +++: No Formation; conditions: 30 mg/kg intraperitoneal once a day for 5 weeks, B16 melanoma cells inoculated by tail vein
Protocol: B16 melanoma cells (5×10^5 cells/mouse) were inoculated from a tail vein of a B6 mouse of the same kind by intravenous injection, and a test substance was administered once a day for 5 weeks from the day of the inoculation by intraperitoneal injection. Then, the test animal was sacrificed and the lungs were removed. The number of colonies of melanoma in the lungs was compared with that in the control (test substance administered at 0 mg/kg).

IC50 (A549: human lung cancer; Homo sapiens, A549) [µM]	IC50 ([4]; Homo sapiens, HepG2) [µM]	IC50 ([5]; Homo sapiens, MIA PaCa-2) [µM]	Structure (SMILES)	IC50 ([1]; Homo sapiens, HepG2, 72 h) [µM]	IC50 ([2]; Homo sapiens, Jurkat, 72 h) [µM]	IC50 ([3]; Homo sapiens, MIA PaCa-2, 72 h) [µM]	IC50 (RD: Human rhabdomyoma; Homo sapiens, 72 h) [µM]	other results
			O=C(Nc1cc(C(F)(F)F)cc(C(F)(F)F)c1)c1cc(Cl)ccc1O [compound 4, N-[3,5-bis(trifluoromethylphenyl)]-5-chloro-2-hydroxybenzamide]					IC50 [1]: 0.69 µM; IC50 [2]: 0.74 µM; IC50 [3]: 0.65 µM; IC50 (RD: Human rhabdomyoma): 1.03 µM; IC50 (A549: human lung cancer): 4.03 µM; IC50 [4]: 0.72 µM; IC50 [5]: 0.82 µM; Colony Formation (melanoma colonies in the lungs vs control) (B16 melanoma): ++; Survival Ratio after 5 weeks(%) (B16 melanoma; control 50%): 100%
			CC(C)(C)c1ccc(O)c(C(=O)Nc2cc(C(F)(F)F)cc(C(F)(F)F)c2)c1 [compound 11, N-[3,5-Bis(trifluoromethyl)phenyl]-5-[(1,1-dimethyl)ethyl]-2-hydroxybenzamide]	1.82	1.21	0.78	1.96	
			O=C(Nc1cc(C(F)(F)F)cc(C(F)(F)F)c1)c1cc(-n2cccc2)ccc1O [compound 27]					IC50 [1]: 1.96 µM; IC50 [2]: 1.2 µM; IC50 [3]: 1.19 µM; IC50 (RD: Human rhabdomyoma): 1.26 µM
			O=C(Nc1cc(C(F)(F)F)cc(C(F)(F)F)c1)c1cc(C(=O)N2CCC(Cc3ccccc3)CC2)ccc1O [compound 40, N-[3,5-Bis(trifluoromethyl)phenyl]-2-hydroxy-5-(4-benzylpiperidine-1-carbonyl)benzamide]					melting point: 179 to 180 °C
			CC(=O)Oc1ccccc1C(=O)Nc1cc(Cl)cc(Cl)c1 [compound 120, 2-acetoxy-N-(3,5-dichlorophenyl)benzamide]					melting point: 218 to 219 °C
> 10	4.23	> 10	CC(C)(C)c1nc(NC(=O)c2cc(Br)ccc2O)sc1N1CCOCC1 [compound 205, 5-Bromo-N-{4-[(1,1-dimethyl)ethyl]-5-morpholinothiazol-2-yl}-2-hydroxybenzamide]	3.5	1.89	1.45	1.94	
			CC(C)(C)c1nc(NC(=O)c2cc(Br)ccc2O)sc1N1CCN(c2ccccc2)CC1 [compound 207, 5-Bromo-N-{4-[(1,1-dimethyl)ethyl]-5-(4-phenylpiperazin-1-yl)thiazol-2-yl}-2-hydroxybenzamide]	1.76	1.64	1.26	1.52	
8.31	4.98	2.76	O=C(Nc1nc(-c2ccccc2)c(C(=O)c2ccccc2)s1)c1cc(Br)ccc1O [compound 215, 5-Bromo-N-(5-benzoyl-4-phenylthiazol-2-yl)-2-hydroxybenzamide]					

Structure (SMILES)	IC50 (A549: human lung cancer; Homo sapiens, A549) [µM]	IC50 ([4]; Homo sapiens, HepG2) [µM]	IC50 ([5]; Homo sapiens, MIA PaCa-2) [µM]	IC50 ([1]; Homo sapiens, HepG2, 72 h) [µM]	IC50 ([2]; Homo sapiens, Jurkat, 72 h) [µM]	IC50 ([3]; Homo sapiens, MIA PaCa-2, 72 h) [µM]	IC50 (RD: Human rhabdomyoma; Homo sapiens, 72 h) [µM]	other results
CC(C)(C)C(=O)c1sc(NC(=O)c2cc(Cl)ccc2O)nc1C(C)(C)C [compound 199, 5-Chloro-N-{4-[(1,1-dimethyl)ethyl]-5-[(2,2-dimethyl)propionyl]thiazol-2-yl}-2-hydroxybenzamide]	5.15	0.59	0.56	1.26	0.44	0.46	0.57	

Reference: US20060014811A1, “Medicament for treatment of cancer” (priority 2002, published 2006)
